# Test system: Sitophilus oryzae
# Assay: Antifeedant activity against Sitophilus oryzae (rice weevil) assessed as mean diet consumed after 72 hr by flour disk bioassay based feeding choice assay (reference value: 7.61 +/- 1.59 mg/day)
# Format: functional
row,Compound,Activity [mg/day]
1,C=C(C)[C@H]1CC[C@]2(C)C/C=C(\C)CC/C=C(\C(=O)OC)CC[C@@H]12,6.74
2,C=C(C)[C@H]1CC[C@]2(C)C[C@H](OC(C)=O)[C@]3(C)CCC=C(CC[C@@H]12)C(=O)O3,6.61
3,C=C(C)[C@H]1CC[C@]2(C)C/C=C(\C)CC/C=C(\C(=O)O)CC[C@@H]12,1.17
4,C=C(C)[C@H]1CC[C@]2(C)C/C=C(\C)C[C@@H]3C=C(CC[C@@H]12)C(=O)O3,3.36
5,C=C(C)[C@H]1CC[C@]2(C)C[C@H](O)[C@]3(C)CCC=C(CC[C@@H]12)C(=O)O3,1.03

# Reference: ChEMBL document CHEMBL3045417, “Structure, Conformation and Absolute Configuration of New Antifeedant Dolabellanes from Trichilia trifolia” (2000)
